Data as given in US20210199640A1, “Methods of Normalizing Aberrant Glycolytic Metabolism in Cancer Cells” (The Board of Trustees of the Leland Stanford Junior …, priority 2019, published 2021).

System: PKM2
Assay: [18F]DASA-23 cellular uptake as measure of PKM2 expression in U87 GBM cells
Format: cell-based, Human
Procedure: [18F]DASA-23 can be used to detect changes in GBM metabolism in response to TMZ and TTFields therapies. In one experiment, Human U87 GBM cells were subjected to 200 kHz TTFields, the IC50 of TMZ, or vehicle for three or six days (n≥3/condition), followed by evaluation of [18F]DASA-23 uptake (e.g., FIGS. 2 and 6). Immunofluorescence for PKM2 was performed to confirm the [18F]DASA-23 uptake results. (e.g., FIG. 9). Western blot analysis was performed to determine the effect of TMZ and TTFields exposure on the expression of PKM2. 2-way ANOVA with multiple comparisons was performed. (e.g., FIG. 8). Data are reported as mean±SD.
The ability of [18F]DASA-23 to detect changes in metabolism in response to TMZ and TTFields therapies, in cell culture and an orthotopic murine model of human GBM (FIG. 6) was evaluated. There was a significant interaction between the treatment (vehicle, TMZ, or TTFields) and treatment duration (3 or 6 days) on PKM2 expression as measured by cellular uptake of [18F]DASA-23 (p=0.005, 2-way ANOVA) (FIG. 6).

[1] = U87 cells, after exposure to TTFields, over 60 minutes, FIG. 7

Cn1nnc2c(C(N)=O)ncn2c1=O [TMZ, Temozolomide]
reduction of PKM2 expression (U87 glioblastoma cells, over a 30 minute period, after treatment with chemotherapy (TMZ), FIG. 6): at least 10%

COc1ccc(S(=O)(=O)N2CCN(S(=O)(=O)c3c(F)cccc3[18F])CC2)cc1 [[18F]DASA-23, 1-((2-fluoro-6-[18F]fluorophenyl)sulfonyl)-4-((4-methoxyphenyl)sulfonyl)piperazine]
reduction of [18F]DASA-23 uptake (U87 cells, after exposure to TTFields, over 30 minutes, FIG. 7): at least 5% | reduction of [18F]DASA-23 retention [1]: at least 20% | reduction of [18F]DASA-23 uptake [1]: at least 10%
